Measurements from US6767916B2 (Indena S.p.A., priority 1999, dated 2004).

Legend:
[1] = cytotoxicity of compounds tested alone against drug-resistant cancer cells; assay type: cell-based; settings: human, MDA-435/LCC-MDR drug-resistant cancer cells, read-out: cytotoxicity IC50, compound alone
Experimental: Compounds VIB 106 and VIB 122 were tested for their cytotoxicity against drug-resistant cancer cells, both alone, and in combination with paclitaxel.
The treatment consisted of concurrent exposure of MDA-435/LCC-MDR cells to paclitaxel in the presence or absence of the compounds reversing agent (1 μM) for 72 h in vitro. Assessment of cytotoxicity, i.e. cell growth inhibition, was determined according to the methods of Skehan, et al. as discussed in J. Nat. Cancer Inst., 82, 1107,1990. Briefly, cells were plated between 400 and 1200 cells/well in 96 well plates and incubated at 37° C. for 15-18 h prior to drug addiction to allow attachment of cells. Compounds were solubilized in 100% DMSO and further diluted in RPMI-1640 containing 10 mM HEPES. After a 72 h incubation, 100 μl of ice-cold 50% TCA was added to each well and incubated for 1 h at 4° C. Plates were then washed 5 times with tap water to remove TCA, low-molecular weight metabolites and serum proteins. Sulforhodamine B (SRB) (0.4%, 50 μl) was added to each well. Following a five minute incubation at room temperature, plates were rinsed 5 times with 0.1% acetic acid and air dried. Bound dye was solubilized with 10 mM Tris Base (pH 10.5) for 5 min on a gyratory shaker. Optical density was measured at 570 nm. [drawing 4] [drawing 5] [drawing 6] [drawing 7]

[2] = tested on: drug-resistant breast cancer cells MDA435/LCC6-MDR; assay: cytostatic activity in combination with paclitaxel (SRB cell growth inhibition); assay type: cell-based; settings: IC50 of paclitaxel in presence or absence of compound (reversing agent 1 μM), 72 h
Experimental: Following a five minute incubation at room temperature, plates were rinsed 5 times with 0.1% acetic acid and air dried. Bound dye was solubilized with 10 mM Tris Base (pH 10.5) for 5 min on a gyratory shaker.

Row | IC50 [2] | Structure (SMILES) | IC50 at 72 h [1]
1 |  | CC(C)=CCOc1ccc2c(C)cc(=O)oc2c1C(=O)C=Cc1cccnc1 | > 1000 nM
2 |  | C=C(C)COc1ccc2c(C)cc(=O)oc2c1C(=O)C=Cc1cccnc1 [VIB 122, 1-[4-Methyl-7-(2-methylallyloxy)coumarin8-yl]-3-(pyridine-3-yl)propen-1-one] | > 1000 nM
3 | 426 nM | CC(=O)O[C@H]1C(=O)[C@@]2(C)[C@H]([C@H](OC(=O)c3ccccc3)[C@]3(O)C[C@H](OC(=O)[C@H](O)[C@@H](NC(=O)c4ccccc4)c4ccccc4)C(C)=C1C3(C)C)[C@]1(OC(C)=O)CO[C@@H]1C[C@@H]2O [Paclitaxel] | 
